Test results published in ChEMBL document CHEMBL3045821, “Microwave-assisted synthesis of 3-indolyl substituted 4H-chromenes catalyzed by DMAP and their antimicrobial activity” (2012).
Converted amounts (≈) assume the structure as drawn.

Tests used:
Format in all cases: functional
Candida albicans = assay: Antifungal activity against Candida albicans MTCC 227 after 24 to 48 hr by broth microdilution method
Aspergillus fumigatus = assay: Antifungal activity against Aspergillus fumigatus MTCC 3008 after 24 to 48 hr by broth microdilution method
Escherichia coli = assay: Antibacterial activity against Escherichia coli MTCC 443 after 24 to 48 hr by broth microdilution method
Vibrio cholerae = assay: Antibacterial activity against Vibrio cholerae MTCC 3906 after 24 to 48 hr by broth microdilution method
Salmonella typhi = assay: Antibacterial activity against Salmonella enterica subsp. enterica serovar Typhi MTCC 98 after 24 to 48 hr by broth microdilution method
Bacillus subtilis = assay: Antibacterial activity against Bacillus subtilis MTCC 441 after 24 to 48 hr by broth microdilution method
Clostridium tetani = assay: Antibacterial activity against Clostridium tetani MTCC 449 after 24 to 48 hr by broth microdilution method
Streptococcus pneumoniae = assay: Antibacterial activity against Streptococcus pneumoniae MTCC 1936 after 24 to 48 hr by broth microdilution method

| Molecule | MIC (Candida albicans) | MIC (Aspergillus fumigatus) | MIC (Escherichia coli) | MIC (Vibrio cholerae) | MIC (Salmonella typhi) | MIC (Bacillus subtilis) | MIC (Clostridium tetani) | MIC (Streptococcus pneumoniae) |
| --- | --- | --- | --- | --- | --- | --- | --- | --- |
| Cc1ccc(-c2[nH]c3ccccc3c2C2C(C#N)=C(N)OC3=C2C(=O)CC(C)(C)C3)cc1 (stereo not drawn) | 500 µg/mL (≈ 1180 µM) | 1000 µg/mL (≈ 2360 µM) | 500 µg/mL (≈ 1180 µM) | 500 µg/mL (≈ 1180 µM) | 250 µg/mL (≈ 590 µM) | 250 µg/mL (≈ 590 µM) | 250 µg/mL (≈ 590 µM) | 200 µg/mL (≈ 472 µM) |
| N#CC1=C(N)OC2=C(C(=O)CCC2)C1c1c(-c2ccc(Br)cc2)[nH]c2ccccc12 (stereo not drawn) | 500 µg/mL (≈ 1090 µM) | 500 µg/mL (≈ 1090 µM) | 125 µg/mL (≈ 272 µM) | 200 µg/mL (≈ 434 µM) | 200 µg/mL (≈ 434 µM) | 200 µg/mL (≈ 434 µM) | 200 µg/mL (≈ 434 µM) | 100 µg/mL (≈ 217 µM) |
| COC1=CC(=O)C[C@@H](C)[C@]12Oc1c(Cl)c(OC)cc(OC)c1C2=O [GRISEOFULVIN] | 500 µg/mL (≈ 1420 µM) | 100 µg/mL (≈ 283 µM) |  |  |  |  |  |  |
| CC1(C)S[C@@H]2[C@H](NC(=O)[C@H](N)c3ccccc3)C(=O)N2[C@H]1C(=O)O [AMPICILLIN] |  |  | 100 µg/mL (≈ 286 µM) | 100 µg/mL (≈ 286 µM) | 100 µg/mL (≈ 286 µM) | 250 µg/mL (≈ 715 µM) | 250 µg/mL (≈ 715 µM) | 100 µg/mL (≈ 286 µM) |
| N#CC1=C(N)OC2=C(C(=O)CCC2)C1c1c(-c2ccc([N+](=O)[O-])cc2)[nH]c2ccccc12 (stereo not drawn) | 200 µg/mL (≈ 469 µM) | 500 µg/mL (≈ 1170 µM) | 500 µg/mL (≈ 1170 µM) | 500 µg/mL (≈ 1170 µM) | 500 µg/mL (≈ 1170 µM) | 250 µg/mL (≈ 586 µM) | 250 µg/mL (≈ 586 µM) | 250 µg/mL (≈ 586 µM) |
| CC1(C)CC(=O)C2=C(C1)OC(N)=C(C#N)C2c1c(-c2ccc(S(C)(=O)=O)cc2)[nH]c2ccccc12 (stereo not drawn) | 250 µg/mL (≈ 513 µM) | 500 µg/mL (≈ 1030 µM) | 100 µg/mL (≈ 205 µM) | 500 µg/mL (≈ 1030 µM) | 200 µg/mL (≈ 410 µM) | 250 µg/mL (≈ 513 µM) | 125 µg/mL (≈ 256 µM) | 500 µg/mL (≈ 1030 µM) |
| CCn1cc(C(=O)O)c(=O)c2cc(F)c(N3CCNCC3)cc21 [NORFLOXACIN] |  |  | 10 µg/mL (≈ 31.3 µM) | 10 µg/mL (≈ 31.3 µM) | 10 µg/mL (≈ 31.3 µM) | 100 µg/mL (≈ 313 µM) | 50 µg/mL (≈ 157 µM) | 10 µg/mL (≈ 31.3 µM) |
| N#CC1=C(N)OC2=C(C(=O)CCC2)C1c1c(-c2ccc(Cl)cc2)[nH]c2ccccc12 (stereo not drawn) | > 1000 µg/mL | 1000 µg/mL (≈ 2400 µM) | 100 µg/mL (≈ 240 µM) | 100 µg/mL (≈ 240 µM) | 125 µg/mL (≈ 301 µM) | 200 µg/mL (≈ 481 µM) | 500 µg/mL (≈ 1200 µM) | 200 µg/mL (≈ 481 µM) |
| CC1(C)CC(=O)C2=C(C1)OC(N)=C(C#N)C2c1c(-c2ccc(Cl)cc2)[nH]c2ccccc12 (stereo not drawn) | > 1000 µg/mL | > 1000 µg/mL | 62.5 µg/mL (≈ 141 µM) | 100 µg/mL (≈ 225 µM) | 200 µg/mL (≈ 451 µM) | 250 µg/mL (≈ 563 µM) | 250 µg/mL (≈ 563 µM) | 250 µg/mL (≈ 563 µM) |
| CS(=O)(=O)c1ccc(-c2[nH]c3ccccc3c2C2C(C#N)=C(N)OC3=C2C(=O)CCC3)cc1 (stereo not drawn) | 1000 µg/mL (≈ 2180 µM) | 1000 µg/mL (≈ 2180 µM) | 100 µg/mL (≈ 218 µM) | 500 µg/mL (≈ 1090 µM) | 100 µg/mL (≈ 218 µM) | 500 µg/mL (≈ 1090 µM) | 100 µg/mL (≈ 218 µM) | 500 µg/mL (≈ 1090 µM) |
| N#CC1=C(N)OC2=C(C(=O)CCC2)C1c1c(-c2ccc(F)cc2)[nH]c2ccccc12 (stereo not drawn) | 500 µg/mL (≈ 1250 µM) | 1000 µg/mL (≈ 2500 µM) | 500 µg/mL (≈ 1250 µM) | 250 µg/mL (≈ 626 µM) | 500 µg/mL (≈ 1250 µM) | 200 µg/mL (≈ 501 µM) | 500 µg/mL (≈ 1250 µM) | 200 µg/mL (≈ 501 µM) |
| CC1(C)CC(=O)C2=C(C1)OC(N)=C(C#N)C2c1c(-c2ccccc2)[nH]c2ccccc12 (stereo not drawn) | 1000 µg/mL (≈ 2440 µM) | 500 µg/mL (≈ 1220 µM) | 500 µg/mL (≈ 1220 µM) | 200 µg/mL (≈ 488 µM) | 500 µg/mL (≈ 1220 µM) | 200 µg/mL (≈ 488 µM) | 200 µg/mL (≈ 488 µM) | 200 µg/mL (≈ 488 µM) |
| O=C(O)c1cn(C2CC2)c2cc(N3CCNCC3)c(F)cc2c1=O [CIPROFLOXACIN] |  |  | 25 µg/mL (≈ 75.4 µM) | 25 µg/mL (≈ 75.4 µM) | 25 µg/mL (≈ 75.4 µM) |  |  | 50 µg/mL (≈ 151 µM) |
| CC1(C)CC(=O)C2=C(C1)OC(N)=C(C#N)C2c1c(-c2ccc(F)cc2)[nH]c2ccccc12 (stereo not drawn) | 1000 µg/mL (≈ 2340 µM) | 250 µg/mL (≈ 585 µM) | 200 µg/mL (≈ 468 µM) | 500 µg/mL (≈ 1170 µM) | 250 µg/mL (≈ 585 µM) | 100 µg/mL (≈ 234 µM) | 200 µg/mL (≈ 468 µM) | 200 µg/mL (≈ 468 µM) |
| CC1(C)CC(=O)C2=C(C1)OC(N)=C(C#N)C2c1c(-c2ccc(Br)cc2)[nH]c2ccccc12 (stereo not drawn) | 1000 µg/mL (≈ 2050 µM) | 200 µg/mL (≈ 410 µM) | 200 µg/mL (≈ 410 µM) | 500 µg/mL (≈ 1020 µM) | 250 µg/mL (≈ 512 µM) | 200 µg/mL (≈ 410 µM) | 500 µg/mL (≈ 1020 µM) | 125 µg/mL (≈ 256 µM) |
| N#CC1=C(N)OC2=C(C(=O)CCC2)C1c1c(-c2ccccc2)[nH]c2ccccc12 (stereo not drawn) | 1000 µg/mL (≈ 2620 µM) | 500 µg/mL (≈ 1310 µM) | 500 µg/mL (≈ 1310 µM) | 250 µg/mL (≈ 655 µM) | 500 µg/mL (≈ 1310 µM) | 500 µg/mL (≈ 1310 µM) | 500 µg/mL (≈ 1310 µM) | 500 µg/mL (≈ 1310 µM) |
| CC1(C)CC(=O)C2=C(C1)OC(N)=C(C#N)C2c1c(-c2ccc([N+](=O)[O-])cc2)[nH]c2ccccc12 (stereo not drawn) | 200 µg/mL (≈ 440 µM) | 250 µg/mL (≈ 550 µM) | 250 µg/mL (≈ 550 µM) | 250 µg/mL (≈ 550 µM) | 500 µg/mL (≈ 1100 µM) | 500 µg/mL (≈ 1100 µM) | 200 µg/mL (≈ 440 µM) | 250 µg/mL (≈ 550 µM) |
| COc1ccc(-c2[nH]c3ccccc3c2C2C(C#N)=C(N)OC3=C2C(=O)CC(C)(C)C3)cc1 (stereo not drawn) | 500 µg/mL (≈ 1140 µM) | > 1000 µg/mL | 500 µg/mL (≈ 1140 µM) | 500 µg/mL (≈ 1140 µM) | 500 µg/mL (≈ 1140 µM) | 500 µg/mL (≈ 1140 µM) | 500 µg/mL (≈ 1140 µM) | 500 µg/mL (≈ 1140 µM) |
| NYSTATIN | 100 µg/mL | 100 µg/mL |  |  |  |  |  |  |
| Cc1ccc(-c2[nH]c3ccccc3c2C2C(C#N)=C(N)OC3=C2C(=O)CCC3)cc1 (stereo not drawn) | 1000 µg/mL (≈ 2530 µM) | 1000 µg/mL (≈ 2530 µM) | 200 µg/mL (≈ 506 µM) | 250 µg/mL (≈ 632 µM) | 250 µg/mL (≈ 632 µM) | 500 µg/mL (≈ 1260 µM) | 500 µg/mL (≈ 1260 µM) | 500 µg/mL (≈ 1260 µM) |
| COc1ccc(-c2[nH]c3ccccc3c2C2C(C#N)=C(N)OC3=C2C(=O)CCC3)cc1 (stereo not drawn) | 500 µg/mL (≈ 1220 µM) | 1000 µg/mL (≈ 2430 µM) | 100 µg/mL (≈ 243 µM) | 200 µg/mL (≈ 486 µM) | 200 µg/mL (≈ 486 µM) | 250 µg/mL (≈ 608 µM) | 100 µg/mL (≈ 243 µM) | 200 µg/mL (≈ 486 µM) |
